Source: the NIST ThermoML archive (doi:10.1021/je030101n)
± gives the expanded uncertainty stated by the source.

What was measured:
[1] = 101.3 kPa, Liquid; for viscosity: Capillary tube (Ostwald / Ubbelohde) method; for mass density: Pycnometric method
[2] = xn = mol fraction of the nth substance listed; conditions: 101.3 kPa, Liquid, x1 = 1; for viscosity: Capillary tube (Ostwald / Ubbelohde) method; for mass density: Pycnometric method

Structure (SMILES) | viscosity ([1]; 298.15 K) | mass density ([1]; 298.15 K) | viscosity ([1]; 303.15 K) | mass density ([1]; 303.15 K) | viscosity ([1]; 308.15 K) | mass density ([1]; 308.15 K) | viscosity ([1]; 313.15 K) | mass density ([1]; 313.15 K) | viscosity ([2]; 298.15 K) | mass density ([2]; 298.15 K) | viscosity ([2]; 303.15 K) | mass density ([2]; 303.15 K) | viscosity ([2]; 308.15 K) | mass density ([2]; 308.15 K) | viscosity ([2]; 313.15 K) | mass density ([2]; 313.15 K)
Nc1ccccc1 [aniline] | 3.69 ± 0.028 mPa·s | 1017.2 ± 0.6 kg/m3 | 3.19 ± 0.024 mPa·s | 1012.9 ± 0.6 kg/m3 | 2.8 ± 0.021 mPa·s | 1008.6 ± 0.6 kg/m3 | 2.42 ± 0.018 mPa·s | 1004.2 ± 0.6 kg/m3 | – | – | – | – | – | – | – | –
N#Cc1ccccc1 [benzonitrile] | 1.171 ± 0.009 mPa·s | 1000.9 ± 0.6 kg/m3 | 1.126 ± 0.009 mPa·s | 996.4 ± 0.6 kg/m3 | 1.068 ± 0.009 mPa·s | 991.9 ± 0.6 kg/m3 | 1.001 ± 0.008 mPa·s | 987.2 ± 0.6 kg/m3 | – | – | – | – | – | – | – | –
CN(C)C=O [dimethylformamide] | 0.803 ± 0.006 mPa·s | 944.5 ± 0.3 kg/m3 | 0.756 ± 0.005 mPa·s | 939.8 ± 0.3 kg/m3 | 0.71 ± 0.005 mPa·s | 935.1 ± 0.3 kg/m3 | 0.673 ± 0.005 mPa·s | 930.2 ± 0.3 kg/m3 | – | – | – | – | – | – | – | –
CN(C)C=O [dimethylformamide] + N#Cc1ccccc1 | – | – | – | – | – | – | – | – | 0.803 ± 0.006 mPa·s | 944.5 ± 0.3 kg/m3 | 0.756 ± 0.005 mPa·s | 939.8 ± 0.3 kg/m3 | 0.71 ± 0.005 mPa·s | 935.1 ± 0.3 kg/m3 | 0.673 ± 0.005 mPa·s | 930.2 ± 0.3 kg/m3
CN(C)C=O [dimethylformamide] + Nc1ccccc1 | – | – | – | – | – | – | – | – | 0.803 ± 0.006 mPa·s | 944.5 ± 0.3 kg/m3 | 0.756 ± 0.005 mPa·s | 939.8 ± 0.3 kg/m3 | 0.71 ± 0.005 mPa·s | 935.1 ± 0.3 kg/m3 | 0.673 ± 0.005 mPa·s | 930.2 ± 0.3 kg/m3
